The values that follow come from publication PMC11900394, “1-Pyrene Carboxylic Acid: An Internalization Enhancer for Short Oligoarginines” (International Journal of Molecular Sciences, 2025).

Data set [1] has as its system MDA-MB-231 cells. As to the kind of experiment: In vitro cytostatic activity, Alamar-blue assay. The following applies: 3 h treatment, then 3 days in serum-containing medium, four parallels, two independent experiments, read-out: IC50 ± SD, cytostatic activity. The class given is cell-based, human. How it is done: The in vitro measurements were carried out on 96-well plates containing 5 × 10^3 MDA-MB-231 cells per well. The cells were incubated for 24 h at 37 °C. The measurement started with treating these cells with the solutions of compounds for 3 h, where the final volume was 200 μL. The cytostatic activity was measured on a broad spectrum of concentrations between 0.000128 and 100 μM. Serum-free medium was used on cells for 3 h at 37 °C as control. After treatment, the compounds were washed out using a serum-free medium twice. The cells were then cultured for 72 h in a medium with serum. Alamar-blue (Resazurim) assay was used to determine the ratio of live cells and thus the IC50. Briefly, Alamar-blue solution (22.5 μL, 0.15 mg/mL in PBS (pH = 7)) was added to the cells. Synergy H4 multimode microplate reader (BioTek, Winooski, VT, USA) was used to determine the fluorescence (at λ = 530/30 nm and 610/10 nm) after 4 h incubation. Cytostasis was calculated as Cytostatic effect (%) = [1 − (ODtreated/ODcontrol)] × 100; where ODtreated and ODcontrol correspond to the optical densities of the treated and untreated cells, respectively. […] The curves were defined using MicrocalTM Origin (version 8.0, OriginLab, Northampton, MA, USA) software: cytostasis was plotted as a function of concentration, fitted to a sigmoidal curve, and the IC50 value was determined. […]

In data set [2] the test system is MDA-MB-231 cells. As to the kind of experiment: Intracellular localization by confocal laser scanning microscopy. The class given is cell-based, human. The following applies: MDA-MB-231, 5 μM, 15, 45 and 90 min; CLSM.
The test system of data set [3] is MDA-MB-231 cells. Conditions: ref [31], read-out: IC50, cytostatic activity; cited from earlier work. The text has this: Table 2 The cytostatic activity of peptide-drug conjugates on MDA-MB-231. | column: IC50 ± SD (µM) * / MDA-MB-231

Where two headings read alike, the source gives them in different places. Numbered stars: 1 amine (or outer) side, 2 acyl side, 3 side chain; on linkers, the order of the positions; unused ones are H or OH. Side chains are listed from the residue outwards. Peptide text beside a SMILES is read from it. * marks the point of attachment. Daunorubicin = COc1cccc2c1C(=O)c1c(O)c3c(c(O)c1C2=O)C[C@@](O)(C(C)=O)C[C@@H]3O[C@H]1C[C@H](N*)[C@H](O)[C@H](C)O1; 1Pyrenoyl = O=C(c1ccc2ccc3cccc4ccc1c2c34)*; Suc = O=C(CCC(=O)[*:2])[*:1]

By IC50 is commonly meant the concentration that gives 50% inhibition. In the case of `COc1cccc2c1C(=O)c1c(O)c3c(c(O)c1C2=O)C[C@@](O)(C(C)=O)C[C@@H]3O[C@H]1C[C@H](NC(=O)CCC(=O)N[C@@H](CCCNC(=N)N)C(=O)N[C@@H](CCCNC(=N)N)C(=O)N[C@@H](CCCNC(=N)N)C(=O)N[C@@H](CCCNC(=N)N)C(=O)N[C@@H](CCCNC(=N)N)C(=O)N[C@@H](CCCNC(=N)N)C(=O)N[C@@H](CCCNC(=N)N)C(=O)N[C@@H](CCCNC(=N)N)C(=O)N[C@@H](CCCCNC(=O)c2ccc3ccc4cccc5ccc2c3c45)C(N)=O)[C@H](O)[C@H](C)O1` [DauSuc-Arg8-Lys(PCA)], in the data set on MDA-MB-231 cells [1], the 50% inhibitory concentration (IC50) was found to be 23.7 ± 4.3 µM.
For the compound `COc1cccc2c1C(=O)c1c(O)c3c(c(O)c1C2=O)C[C@@](O)(C(C)=O)C[C@@H]3O[C@H]1C[C@H](NC(=O)CCC(=O)NCCCC[C@H](NC(=O)[C@H](CCCNC(=N)N)NC(=O)[C@H](CCCNC(=N)N)NC(=O)[C@H](CCCNC(=N)N)NC(=O)[C@H](CCCNC(=N)N)NC(=O)[C@H](CCCNC(=N)N)NC(=O)[C@H](CCCNC(=N)N)NC(=O)[C@H](CCCNC(=N)N)NC(=O)[C@H](CCCNC(=N)N)NC(=O)c2ccc3ccc4cccc5ccc2c3c45)C(N)=O)[C@H](O)[C@H](C)O1` [PCA-Arg8-Lys(DauSuc)], the IC50 with MDA-MB-231 cells [1] was determined as 28.1 ± 7.5 µM.
As for `COc1cccc2c1C(=O)c1c(O)c3c(c(O)c1C2=O)C[C@@](O)(C(C)=O)C[C@@H]3O[C@H]1C[C@H](NC(=O)CCC(=O)NCCCC[C@H](NC(=O)[C@H](CCCNC(=N)N)NC(=O)[C@H](CCCNC(=N)N)NC(=O)[C@H](CCCNC(=N)N)NC(=O)[C@H](CCCNC(=N)N)NC(=O)[C@H](Cc2c[nH]c3ccccc23)NC(=O)c2ccc3ccc4cccc5ccc2c3c45)C(N)=O)[C@H](O)[C@H](C)O1` [PCA-Trp-Arg4-Lys(DauSuc)] (1Pyrenoyl-WRRRRK([Suc-Daunorubicin])-NH2), the “Internalization of DauSuc conjugates (Dau fluorescence)” value in the data set on MDA-MB-231 cells [2] was “very efficient internalization”.
Consider succinylated daunomycin [DauSuc], for which the IC50 with MDA-MB-231 cells [3] was over 100 µM.
